The values that follow are results of earlier work, collected in patent US20060222695A1, “Deoxycholic acid liposome-based dermatological topical preparation” (priority 2005, published 2006).

This series concerns cell cultures and tissue specimen. Conditions: similar to the effects of laboratory detergents.

Consider `C[C@H](CCC(=O)O)[C@H]1CC[C@H]2[C@@H]3CC[C@@H]4C[C@H](O)CC[C@]4(C)[C@H]3C[C@H](O)[C@]12C` [Deoxycholic acid], for which the “effect on cells and fat tissue” value is “loss of cell viability, cell membrane lysis and disruption of fat architecture”.
